Our source for the Ki values is patent US9790230B2 (Hoffmann-La Roche Inc., priority 2015, dated 2017).

For one experiment, the target named is mouse TAAR1 (Mus musculus (Mouse), UniProt Q923Y8). Kind of experiment: Radioligand binding assay on mouse TAAR1.
Another experiment addresses rat TAAR1 (Rattus norvegicus (Rat), UniProt Q923Y9). The experiment can be described thus: Radioligand binding assay on rat TAAR1.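 Note: membranes from HEK293 cells stably transfected with rat TAAR1, tritiated TAAR1 radioligand, 1 h incubation at 4 °C, nonspecific binding determined with excess unlabeled ligand.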

Each structure is given as a SMILES string. Like-named read-outs stand apart in the source and are kept apart here.

Chain of mouse TAAR1 (Q923Y8 whole entry): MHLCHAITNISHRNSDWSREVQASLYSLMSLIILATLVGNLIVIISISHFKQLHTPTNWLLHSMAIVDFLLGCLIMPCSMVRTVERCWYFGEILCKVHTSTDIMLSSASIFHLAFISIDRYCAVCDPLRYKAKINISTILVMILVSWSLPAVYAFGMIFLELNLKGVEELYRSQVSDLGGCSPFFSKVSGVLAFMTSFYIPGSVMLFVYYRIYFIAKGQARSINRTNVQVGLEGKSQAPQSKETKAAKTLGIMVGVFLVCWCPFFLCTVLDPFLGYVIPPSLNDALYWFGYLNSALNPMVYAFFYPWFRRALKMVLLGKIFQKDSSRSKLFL
Chain of rat TAAR1 (Q923Y9 whole entry): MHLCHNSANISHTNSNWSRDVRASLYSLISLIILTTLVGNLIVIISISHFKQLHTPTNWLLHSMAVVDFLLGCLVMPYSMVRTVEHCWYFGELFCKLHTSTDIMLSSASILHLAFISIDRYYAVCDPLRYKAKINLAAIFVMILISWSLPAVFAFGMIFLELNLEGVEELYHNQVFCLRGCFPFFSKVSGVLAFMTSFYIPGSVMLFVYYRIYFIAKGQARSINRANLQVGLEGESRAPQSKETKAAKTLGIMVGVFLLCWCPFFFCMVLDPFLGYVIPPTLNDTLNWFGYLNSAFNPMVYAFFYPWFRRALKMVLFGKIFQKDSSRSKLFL
Protocol for mouse TAAR1: Radioligand Binding Assay on Mouse TAAR1
Membrane Preparation and Radioligand Binding.
HEK-293 cells stably expressing mouse TAAR1 were maintained at 37° C. and 5% CO2 in DMEM high glucose medium, containing fetal calf serum (10%, heat inactivated for 30 min at 56° C.), penicillin/streptomycin (1%), and 375 μg/ml geneticin (Gibco). Cells were released from culture flasks using trypsin/EDTA, harvested, washed twice with ice-cold PBS (without Ca^2+ and Mg^2+), pelleted at 1'000 rpm for 5 min at 4° C., frozen and stored at −80° C. Frozen pellets were suspended in 20 ml HEPES-NaOH (20 mM, pH 7.4) containing 10 mM EDTA and homogenized with a Polytron (PT 6000, Kinematica) at 14'000 rpm for 20 s. The homogenate was centrifuged at 48'000×g for 30 min at 4° C. Subsequently, the supernatant was removed and discarded, and the pellet resuspended in 20 ml HEPES-NaOH (20 mM, pH 7.4) containing 0.1 mM EDTA using the Polytron (20 s at 14'000 rpm). This procedure was repeated and the final pellet resuspended in HEPES-NaOH containing 0.1 mM EDTA and homogenized using the Polytron. Typically, aliquots of 2 ml membrane portions were stored at −80° C. With each new membrane batch the dissociation constant (Kd) was determined via a saturation curve. The TAAR1 radioligand ^3[H]—(S)-4-[(ethyl-phenyl-amino)-methyl]-4,5-dihydro-oxazol-2-ylamine (described in WO 2008/098857) was used at a concentration equal to the calculated Kd value, that was usually around 0.7 nM, resulting in the binding of approximately 0.5% of the radioligand and a specific binding representing approximately 70% of the total binding. Nonspecific binding was defined as the amount of ^3[H]—(S)-4-[(ethyl-phenyl-amino)-methyl]-4,5-dihydro-oxazol-2-ylamine bound in the presence of 10 M unlabeled ligand. All compounds were tested at a broad range of concentrations (10 pM to 10 μM) in duplicates. […] The 96 deep well plates were incubated for 1 hr at 4° C. Incubations were terminated by rapid filtration through Unifilter-96 plates (Packard Instrument Company) and glass filters GF/C (Perkin Elmer) presoaked for 1 hr in polyethylenimine (0.3%) and washed 3 times with 1 ml of cold binding buffer. After addition of 45 μl of Microscint 40 (PerkinElmer) the Unifilter-96 plate was sealed and after 1 hr the radioactivity counted using a TopCount Microplate Scintillation Counter (Packard Instrument Company).

One may read the Ki as a measure of affinity in units of concentration, obtained from inhibition or displacement. Turning to `COCCCNc1ccc([C@H]2O[C@@H]3CN[C@H]2C3)cc1` [Example 65, N-(3-Methoxypropyl)-4-[(1S,3R,4S)-2-oxa-5-azabicyclo[2.2.1]heptan-3-yl]aniline], the Ki on mouse TAAR1 is 2.07 µM; at rat TAAR1, 0.0702 µM.

As for `CC(C)Cc1n[nH]c(C(=O)Nc2ccc([C@@H]3O[C@H]4CN[C@@H]3C4)cc2)c1F` [Example 100, 4-Fluoro-3-isobutyl-N-[4-[(1R,3S,4R)-2-oxa-5-azabicyclo[2.2.1]heptan-3-yl]phenyl]-11H-pyrazole-5-carboxamide], the Ki on mouse TAAR1 (read-out: Ki (μM) mouse, mouse TAAR1, HEK-293 membranes, first value of cell mouse/rat) was 0.0059 µM; at rat TAAR1 (read-out: Ki (μM) rat, rat TAAR1, HEK-293 membranes, second value of cell mouse/rat), 0.0278 µM.

On to `FC(F)(F)c1nccc(Nc2ccc([C@H]3O[C@@H]4CN[C@H]3C4)cc2)n1` [Example 21, N-[4-[(1S,3R,4S)-2-Oxa-5-azabicyclo[2.2.1]heptan-3-yl]phenyl]-2-(trifluoromethyl)pyrimidin-4-amine], for which the results for the Ki at mouse TAAR1 and on rat TAAR1 were 0.0197 µM and 0.633 µM, respectively.

For the compound `Clc1ccc(CNc2ccc([C@H]3O[C@@H]4CN[C@H]3C4)cc2)cc1` [Example 38, N-[(4-Chlorophenyl)methyl]-4-[(1S,3R,4S)-2-oxa-5-azabicyclo[2.2.1]heptan-3-yl]aniline], the Ki on mouse TAAR1 was 0.562 µM; on rat TAAR1, 0.167 µM.

Regarding `O=C(Nc1ccc([C@H]2O[C@@H]3CN[C@H]2C3)cc1)c1ccnc(C(F)(F)F)n1` [Example 42, N-[4-[(1S,3R,4S)-2-Oxa-5-azabicyclo[2.2.1]heptan-3-yl]phenyl]-2-(trifluoromethyl)pyrimidine-4-carboxamide], the Ki at mouse TAAR1 was determined as 0.337 µM; at rat TAAR1 it was 10 µM.

With `CCOc1n[nH]c(C(=O)Nc2ccc([C@@H]3O[C@H]4CN[C@@H]3C4)cc2)c1Cl` [Example 98, 4-Chloro-3-ethoxy-N-[4-[(1R,3S,4R)-2-oxa-5-azabicyclo[2.2.1]heptan-3-yl]phenyl]-1H-pyrazole-5-carboxamide], the figures for the Ki on mouse TAAR1 and on rat TAAR1 were 0.0068 µM and 0.0745 µM, respectively.

With `O=C(Nc1ccc([C@H]2O[C@@H]3CN[C@H]2C3)cc1)c1ccc(OCC(F)(F)F)cn1` [Example 51, N-[4-[(1S,3R,4S)-2-Oxa-5-azabicyclo[2.2.1]heptan-3-yl]phenyl]-5-(2,2,2-trifluoroethoxy)pyridine-2-carboxamide], the values for the Ki at mouse TAAR1 and on rat TAAR1 were 0.0034 µM and 0.0438 µM, respectively.

Turning to `O=C(Nc1ccc([C@H]2O[C@@H]3CN[C@H]2C3)cc1)c1[nH]nc(C2CC2)c1Cl` [Example 37, 4-Chloro-3-cyclopropyl-N-[4-[(1S,3R,4S)-2-oxa-5-azabicyclo[2.2.1]heptan-3-yl]phenyl]-1H-pyrazole-5-carboxamide], the Ki on mouse TAAR1 turned out to be 0.0613 µM; at rat TAAR1, 2.67 µM.

On to `CCc1n[nH]c(C(=O)Nc2ccc([C@@H]3O[C@H]4CN[C@@H]3C4)cc2)c1Br` [Example 99, 4-Bromo-3-ethyl-N-[4-[(1R,3S,4R)-2-oxa-5-azabicyclo[2.2.1]heptan-3-yl]phenyl]-1H-pyrazole-5-carboxamide], for which the Ki on mouse TAAR1 was 0.0035 µM; at rat TAAR1, 0.127 µM.

On to `O=C(Nc1ccc([C@H]2O[C@@H]3CN[C@H]2C3)cc1)c1ccc(OCC2CC2)cc1` [Example 32, 4-(Cyclopropylmethoxy)-N-[4-[(1S,3R,4S)-2-oxa-5-azabicyclo[2.2.1]heptan-3-yl]phenyl]benzamide], for which the Ki on mouse TAAR1 amounted to 0.0063 µM; at rat TAAR1 it was 0.164 µM.

Regarding `c1ccc([C@H]2O[C@@H]3CN[C@H]2C3)nc1` [Example 105, (1S,3S,4S)-3-(2-Pyridyl)-2-oxa-5-azabicyclo[2.2.1]heptane], the results for the Ki at mouse TAAR1 and at rat TAAR1 were 0.0465 µM and 0.324 µM, respectively.

Turning to `Clc1ccc(Nc2ccc([C@H]3O[C@@H]4CN[C@H]3C4)cc2)nc1` [Example 20, 5-Chloro-N-[4-[(1S,3R,4S)-2-oxa-5-azabicyclo[2.2.1]heptan-3-yl]phenyl]pyridin-2-amine], the Ki at mouse TAAR1 is 0.0041 µM; on rat TAAR1, 0.397 µM.
